pKi: −log10 of the molar value. Converted amounts (≈) assume the structure as drawn.
Columns and labels:
[1] = tested on: S. Aureus MR; assay: MIC by standard micro dilution method (NCCLS M7-A5); assay type: cell-based, Staphylococcus aureus; settings: Mueller-Hinton medium (cation-adjusted), 16-24 h at 35°C; for MIC: Staphylococcus aureus, read-out: Geometric Mean MIC
[2] = molecular target: T1, human MAO-A (Homo sapiens, UniProt P21397); assay: In vitro MAO-A enzymatic activity (kynuramine substrate, fluorometry); assay type: biochemical; settings: membranes from SF9 cells expressing human MAO-A; kynuramine 30 µM, 37° for 40 min
T1 construct: purchased Gentest, BD, USA; host or cells: SF9 cells (membranes)
T1 sequence (P21397 1-527): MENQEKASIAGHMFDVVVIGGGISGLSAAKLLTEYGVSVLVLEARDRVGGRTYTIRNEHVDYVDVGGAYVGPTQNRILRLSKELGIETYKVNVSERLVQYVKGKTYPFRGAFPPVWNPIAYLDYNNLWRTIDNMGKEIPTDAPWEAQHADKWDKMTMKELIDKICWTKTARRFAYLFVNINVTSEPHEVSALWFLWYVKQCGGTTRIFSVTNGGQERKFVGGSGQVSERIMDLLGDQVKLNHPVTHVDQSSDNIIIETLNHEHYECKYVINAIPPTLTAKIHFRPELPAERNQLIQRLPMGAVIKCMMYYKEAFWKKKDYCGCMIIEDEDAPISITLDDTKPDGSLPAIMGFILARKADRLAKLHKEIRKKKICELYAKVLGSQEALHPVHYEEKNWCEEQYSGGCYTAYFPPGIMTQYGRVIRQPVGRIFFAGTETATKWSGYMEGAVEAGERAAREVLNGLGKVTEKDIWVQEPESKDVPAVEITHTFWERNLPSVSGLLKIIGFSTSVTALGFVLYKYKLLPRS
Experimental: (§1) MAO-A and MAO-B enzymatic activities were measured using membranes obtained from SF9 cells expressing either human MAO-A or human MAO-B (Gentest, BD, USA). Assays were done in blank 96-well micro titter plates using kynuramine as substrate and measuring the formation of 4-hydroxyquinoline by fluorescence at 340 nm/465 nm. Briefly, membranes with MAO-A (0.006 mg/mL protein) and MAO-B (0.015 mg/mL protein) were incubated with kynuramine, 30 µM), at 37° for 40 min in the presence of the compound in a final volume of 200 µL. Reactions were stopped by adding NaOH 2N and the reaction product, 4-hydroxyquinoline, was determined by fluorometry using a Tecan Ultra reader.

[3] = tested on: S. pneumoniae; assay: MIC by standard micro dilution method (NCCLS M7-A5); assay type: cell-based, Streptococcus pneumoniae; settings: 20-24h at 35°C; for MIC: Streptococcus pneumoniae, 5% CO2, read-out: Geometric Mean MIC
[4] = tested on: S. epidermidis; assay: as above; assay type: cell-based, Staphylococcus epidermidis; settings: Mueller-Hinton medium (cation-adjusted), 16-24 h at 35°C; for MIC: Staphylococcus epidermidis, read-out: Geometric Mean MIC
[5] = molecular target: T2, human MAO-B (Homo sapiens, UniProt P27338); assay: In vitro MAO-B enzymatic activity (kynuramine substrate, fluorometry); assay type: biochemical; settings: membranes from SF9 cells expressing human MAO-B; kynuramine 30 µM, 37° for 40 min
T2 construct: purchased Gentest, BD, USA; host or cells: SF9 cells (membranes)
T2 sequence (P27338 1-520): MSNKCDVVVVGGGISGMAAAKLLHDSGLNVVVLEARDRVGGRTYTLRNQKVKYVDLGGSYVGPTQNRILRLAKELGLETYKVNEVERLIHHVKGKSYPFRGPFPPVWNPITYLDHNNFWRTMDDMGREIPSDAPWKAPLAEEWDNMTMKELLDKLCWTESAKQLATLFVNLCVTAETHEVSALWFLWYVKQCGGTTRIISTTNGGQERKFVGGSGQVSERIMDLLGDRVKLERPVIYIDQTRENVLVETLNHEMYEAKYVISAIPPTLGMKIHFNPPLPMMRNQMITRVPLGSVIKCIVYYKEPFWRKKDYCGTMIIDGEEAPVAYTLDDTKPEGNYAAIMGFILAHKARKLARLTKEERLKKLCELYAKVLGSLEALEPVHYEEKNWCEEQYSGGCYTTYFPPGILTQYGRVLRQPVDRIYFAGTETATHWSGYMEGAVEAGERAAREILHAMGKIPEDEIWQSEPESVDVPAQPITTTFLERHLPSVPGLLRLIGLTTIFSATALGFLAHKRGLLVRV
Experimental: as §1

[6] = tested on: Moxarella, Pasteurella and Bacteroides spp.; settings: background art; cited from earlier work

| Compound | MIC [1] [µg/mL] | pKi [2] | MIC [3] [µg/mL] | MIC [4] [µg/mL] | pKi [5] | MICs [6] [µg/mL] | Geometric Mean MIC [1] [µg/mL] | Geometric Mean MIC ([3]; 5% CO2) [µg/mL] | Geometric Mean MIC [4] [µg/mL] |
| --- | --- | --- | --- | --- | --- | --- | --- | --- | --- |
| CC(=O)NC[C@H]1CN(c2ccc(-c3nnnn3C)c(F)c2)C(=O)O1 [Example 2, N-[[(5S)-3-[3-fluoro-4-(1-methyl-1H-tetrazol-5-yl)-phenyl]-2-oxo-5-oxazolidinyl]methyl]acetamide] | 2 (≈ 5.98 µM) | 4.13 | 2 (≈ 5.98 µM) | 2 (≈ 5.98 µM) | 4.85 |  |  |  |  |
| CC(=O)NC[C@H]1CN(c2ccc(-c3nnn(CCO)n3)c(F)c2)C(=O)O1 [Example 7, N-[[(5S)-3-[3-fluoro-4-(2-hydroxyethyl-2H-tetrazol-5-yl)-phenyl]-2-oxo-5-oxazolidinyl]methyl]acetamide] |  | 4.54 |  |  | 5.09 |  |  |  |  |
| CC(=O)NC[C@H]1CN(c2ccc(N3CCOCC3)c(F)c2)C(=O)O1 [Linezolid, N-[[(5S)-3-[3-fluoro-4-(4-morpholinyl)phenyl]-2-oxo-5-oxazolidinyl]methyl]acetamide, reference compound] | 1 (≈ 2.96 µM) |  | 1 (≈ 2.96 µM) | 1 (≈ 2.96 µM) |  | 2 to 8 |  |  |  |
| N-[[(5S)-3-[3-fluoro-4-(1-hydroxyethyl-1H-tetrazol-5-yl)-phenyl]-2-oxo-5-oxazolidinyl]methyl]acetamide [Example 8] |  |  |  |  |  |  | 2 | 2 | 1 |
| N-[[(5S)-3-[3-fluoro-4-(2-acetoacetyl-2H-tetrazol-5-yl)-phenyl]-2-oxo-5-oxazolidinyl]methyl]acetamide [Example 6] |  | 4.43 |  |  | 5.00 |  |  |  |  |
